Measured values published in US20190083521A1, “COMBINATION THERAPY FOR TREATING CANCER” (Epizyme, Inc., priority 2014, published 2019).

Columns and labels:
Type in all cases: cell-based, human
[1] = test system: MOLM-13 cells; assay: Example 6 combination screen: 300 nM EPZ-5676 pre-treatment, second compound 72 h, ATPLite, IC50 shift; details: 300 nM EPZ-5676 pre-treatment (4 + 3 days) vs DMSO, then 2nd compound 72 h, IC50 shift of 2nd compound
Procedure: (§1) Cells were then equilibrated in incubators for 24 hours before treatment with a second compound. Treated assay plates were incubated with a second compound for 72 hours. After this time, plates were developed for endpoint analysis using ATPLite to measure ATP content, which is used as an indicator of cell viability.
(§2) “N/D” means that IC50 of the second compound could not be determined for both conditions.

[2] = test system: SKM-1 cells; assay: as above; details: SKM-1 cells; 300 nM EPZ-5676 pre-treatment (4 + 3 days) vs DMSO, then 2nd compound 72 h; ATPLite; IC50 shift of 2nd compound
Procedure: as §1, §2

[3] = test system: MOLM-13 (MLL-AF9) cells; assay: Combination proliferation assay with Compound A2 (CellTiter-Glo, Chou-Talalay CI); details: for Combination effect with Compound A2: MOLM-13, 7 Day Cotreatment (Example 1); for Combination effect with Compound A2 (Table 2): MOLM-13 MLL-AF9; for Combination effect with Compound A2 (Table 4): MOLM-13 (MLL-AF9), 7 Day Cotreatment Model
Procedure: (§3) The acute myelogenous leukemia cell lines MV4-11 (MLL-AF4) and MOLM-13 (MLL-AF9) were obtained from American Type Culture Collection (ATCC; Rockville, Md.) and Deutsche Sammlung von Mikroorganismen and Zellkulturen (DSMZ; Braunschweig, Germany) respectively.
(§4) Studies were performed using MLL-rearranged cell lines in vitro to evaluate the anti-proliferative effect of a combination of two agents together on cell growth. Initial proliferation studies were performed to determine the IC50 of a given compound in each cell line. The cell counts were measured by ATP quantitation using the Promega Cell Titer Glo kit and luminescence values corresponded to the amount of ATP in a given well.
(§5) Compounds were evaluated for synergy in the co-treatment phase by testing the compounds in a concentration range which was bracketed around their IC50 values. The compounds were plated to a 96 well plate in a matrix format (FIG. 3) which includes increasing concentrations of each drug in the combination in a constant ratio, in addition to the effect of each compound alone in the study. Cells were seeded and grown in the log-linear phase for 3 or 7 days in the co-treatment phase. Minimum inhibition (DMSO alone) controls were used in each plate to calculate fraction affected (Fa) of a test well. DMSO concentration was kept at 0.1% v/v.
(§6) The drug combination analysis was performed utilizing the Chou-Talalay method Synergy was determined using the software package Calcusyn by Biosoft. The combination index (CI) is a quantitative term used to describe the level of synergy or antagonism in a given test system. A combination index less than one indicates synergy, and a CI greater than one indicates antagonism. Further, strong synergism is achieved when the CI value falls below 0.3.
(§7) The HP-D300 digital dispenser (Tecan) was used to dispense compounds in a combinatorial matrix. […] Cell viability was measured via ATP content using CellTiter-Glo® (Promega).
(§8) Viability was determined using CellTiter-Glo® (Promega).
Cell viability was measured via ATP content using CellTiter-Glo® (Promega).
as §4, with “Proliferation studies” for “Studies”, “MOLM-13, MV4-11 and SKM-1” for “MLL-rearranged”, “cancer cell killing” for “anti-proliferative”, “IC50 values” for “IC50”, “correspond” for “corresponded”
(§9) These studies were performed to evaluate both the combinatorial effect of compounds on cell killing and the durability of the effect by washing out one of the agents.
(§10) Compounds evaluated for synergy in the co-treatment phase were tested in a range which was bracketed around the IC50's. The compounds were plated to a 96 well plate in a matrix format which includes increasing concentrations of each drug in the combination in a constant ratio, in addition to the effect of each compound alone in the study. Cells were seeded and grown in the log-linear phase for 3 or 7 days in the cotreatment phase. Maximum and minimum inhibition (DMSO alone) controls were used in each plate to calculate fraction affected (Fa) of a test well. DMSO concentration was kept at 0.1% v/v. The drug combination analysis was performed utilizing the Chou-Talalay method. Synergy was determined using the software package Calcusyn by Biosoft. The combination index (CI) is the term used to describe the level of synergy or antagonism in a given test system. A combination index less than one indicates synergy, and a CI greater than one indicates antagonism.
(§11) The drug combination analysis was performed using the Chou-Talalay method. Graphs representing values of combination index (CI) versus Fractional effect (Fa) known as Fa-CI plots were generated and synergy was evaluated.

[4] = test system: MV4-11 (MLL-AF4) cells; assay: as above; details: for Combination effect with Compound A2: 7 Day Cotreatment (Example 1); for Combination effect with Compound A2 (Table 2): MV4-11 MLL-AF4; for Combination effect with Compound A2 (Table 4): MV4-11 (MLL-AF4)
Procedure: as §3, §4, §5, §6, §7, §8
as §4, with “Proliferation studies” for “Studies”, “MOLM-13, MV4-11 and SKM-1” for “MLL-rearranged”, “cancer cell killing” for “anti-proliferative”, “IC50 values” for “IC50”, “correspond” for “corresponded”
as §9, §10
as §11, with “evaluated. Drug synergy was statistically defined by CI values less than 1, antagonism by CI>1 and additive effect by CI equal to 1.” for “evaluated.”

Nc1ccccc1NC(=O)c1ccc(CNC(=O)OCc2cccnc2)cc1 [MS-275]
Summary of Combination Studies: MOLM-13 [1]: Synergy (considered synergistic if the IC50 value of the second compound decreased by 2-fold or more when EPZ-5676 was added as compared to the DMSO control)

CC(=O)OC[C@H]1O[C@@H]([S-])[C@H](OC(C)=O)[C@@H](OC(C)=O)[C@@H]1OC(C)=O.CCP(CC)CC.[Au+] [Auranofin]
Summary of Combination Studies: MOLM-13 [1]: Synergy (considered synergistic if the IC50 value of the second compound decreased by 2-fold or more when EPZ-5676 was added as compared to the DMSO control)

COc1cc2c(NC3CCN(C4CCCCC4)CC3)nc(N3CCCN(C(C)C)CC3)nc2cc1OCCCN1CCCCC1 [UNC 0646]
Summary of Combination Studies: MOLM-13 [1]: Synergy (considered synergistic if the IC50 value of the second compound decreased by 2-fold or more when EPZ-5676 was added as compared to the DMSO control)
Summary of Combination Studies: SKM-1 [2]: Synergy (considered synergistic if the IC50 value of the second compound decreased by 2-fold or more when EPZ-5676 was added as compared to the DMSO control)

CC1(C)CCC(c2ccc(Cl)cc2)=C(CN2CCN(c3ccc(C(=O)NS(=O)(=O)c4ccc(N[C@H](CCN5CCOCC5)CSc5ccccc5)c(S(=O)(=O)C(F)(F)F)c4)cc3)CC2)C1 [Navitoclax]
Combination effect with Compound A2 [3]: synergy
Combination effect with Compound A2 ([4]; MV4-11): synergy

O=c1cc(N2CCOCC2)oc2c(-c3cccc4c3sc3ccccc34)cccc12 [NU 7441]
Summary of Combination Studies: MOLM-13 [1]: Synergy (considered synergistic if the IC50 value of the second compound decreased by 2-fold or more when EPZ-5676 was added as compared to the DMSO control)

O=C(/C=C/c1ccc(O)c(O)c1)OCCc1ccccc1 [CAPE]
Summary of Combination Studies: MOLM-13 [1]: Synergy (considered synergistic if the IC50 value of the second compound decreased by 2-fold or more when EPZ-5676 was added as compared to the DMSO control)
Summary of Combination Studies: SKM-1 [2]: Synergy (considered synergistic if the IC50 value of the second compound decreased by 2-fold or more when EPZ-5676 was added as compared to the DMSO control)

Nc1ncn([C@H]2C[C@H](O)[C@@H](CO)O2)c(=O)n1 [Decitabine]
Combination effect with Compound A2 (Table 2) [3]: Synergy (Drug synergy was statistically defined by CI values less than 1)
Combination effect with Compound A2 (Table 2) [4]: Synergy (Drug synergy was statistically defined by CI values less than 1)

CCCc1cc2c(N3CCN(C4=NCC(C)(C)S4)CC3)ncnc2s1 [Menin-MLL inhibitor MI-2]
Combination effect with Compound A2 (Table 4) [3]: Synergy (Drug synergy was statistically defined by CI values less than 1)
Combination effect with Compound A2 (Table 4) ([4]; 7 Day Cotreatment Model): Synergy (Drug synergy was statistically defined by CI values less than 1)

Clc1ccc(C2(c3ccc(-c4cn[nH]c4)cc3)CCNCC2)cc1 [AT7867]
Summary of Combination Studies: MOLM-13 [1]: Synergy (considered synergistic if the IC50 value of the second compound decreased by 2-fold or more when EPZ-5676 was added as compared to the DMSO control)

COc1ccc(C2=N[C@@H](c3ccc(Cl)cc3)[C@@H](c3ccc(Cl)cc3)N2C(=O)N2CCNC(=O)C2)c(OC(C)C)c1 [Nutlin-3]
Summary of Combination Studies: MOLM-13 [1]: Synergy (considered synergistic if the IC50 value of the second compound decreased by 2-fold or more when EPZ-5676 was added as compared to the DMSO control)

Cc1sc2c(c1C)C(c1ccc(Cl)cc1)=N[C@@H](CC(N)=O)c1nnc(C)n1-2 [CPI-203]
Summary of Combination Studies: MOLM-13 [1]: Synergy (considered synergistic if the IC50 value of the second compound decreased by 2-fold or more when EPZ-5676 was added as compared to the DMSO control)
Summary of Combination Studies: SKM-1 [2]: Synergy (considered synergistic if the IC50 value of the second compound decreased by 2-fold or more when EPZ-5676 was added as compared to the DMSO control)

N[C@@H]1C[C@H]1c1ccccc1 (racemic) [Tranylcypromine]
Combination effect with Compound A2 (Table 4) [3]: Strong Synergy
Combination effect with Compound A2 [3]: synergy
Combination effect with Compound A2 (Table 4) ([4]; 7 Day Cotreatment Model): Synergy (Drug synergy was statistically defined by CI values less than 1)
Combination effect with Compound A2 ([4]; MV4-11): synergy

c1ccc2c(CCNc3ccc(Nc4ccncc4)cc3)c[nH]c2c1 [JNJ 26854165]
Summary of Combination Studies: MOLM-13 [1]: Synergy (considered synergistic if the IC50 value of the second compound decreased by 2-fold or more when EPZ-5676 was added as compared to the DMSO control)

Cn1cncc1[C@@](N)(c1ccc(Cl)cc1)c1ccc2c(c1)c(-c1cccc(Cl)c1)cc(=O)n2C [Tipifarnib]
Combination effect with Compound A2 (Table 5) ([4]; MV4-11, 7 Day Cotreatment Model): Synergy (Drug synergy was statistically defined by CI values less than 1)

N.N.[Cl][Pt][Cl] [Cisplatin]
Summary of Combination Studies: MOLM-13 [1]: Synergy (considered synergistic if the IC50 value of the second compound decreased by 2-fold or more when EPZ-5676 was added as compared to the DMSO control)

O=C1c2ccccc2-c2nc3nonc3nc21 [SMER 3]
Summary of Combination Studies: MOLM-13 [1]: Synergy (considered synergistic if the IC50 value of the second compound decreased by 2-fold or more when EPZ-5676 was added as compared to the DMSO control)

Cc1cccc(-c2[nH]c(C(C)(C)C)nc2-c2ccc3c(c2)OCO3)n1 [SB-505124]
Summary of Combination Studies: MOLM-13 [1]: Synergy (considered synergistic if the IC50 value of the second compound decreased by 2-fold or more when EPZ-5676 was added as compared to the DMSO control)

CC(C)(C)c1cc(NC(=O)Nc2ccc(-c3cn4c(n3)sc3cc(OCCN5CCOCC5)ccc34)cc2)no1 [Quizartinib]
Combination effect with Compound A2 ([4]; MV4-11): synergy

c1ccc([C@@H]2C[C@H]2NC2CCNCC2)cc1 [GSK-LSD1]
Summary of Combination Studies: MOLM-13 [1]: Synergy (considered synergistic if the IC50 value of the second compound decreased by 2-fold or more when EPZ-5676 was added as compared to the DMSO control)

Cc1cc(Cl)cc(OCCn2cc(F)cn2)c1-c1nc(N)nc2c1CN(C(=O)NCC(C)(F)F)C2 [BEP800]
Summary of Combination Studies: MOLM-13 [1]: Synergy (considered synergistic if the IC50 value of the second compound decreased by 2-fold or more when EPZ-5676 was added as compared to the DMSO control)

CC(=O)O/N=C1\C(=O)N(Cc2cc(Cl)ccc2Cl)c2ccc(Cl)cc21 [LDN 57444]
Summary of Combination Studies: MOLM-13 [1]: Synergy (considered synergistic if the IC50 value of the second compound decreased by 2-fold or more when EPZ-5676 was added as compared to the DMSO control)

COc1cc2c(cc1-c1c(C)noc1C)ncc1[nH]c(=O)n([C@H](C)c3ccccn3)c12 [IBET-151]
Combination effect with Compound A2 (Table 2) [3]: Synergy (Drug synergy was statistically defined by CI values less than 1)
Combination effect with Compound A2 ([4]; MV4-11): Synergy (A combination index less than one indicates synergy)
Combination effect with Compound A2 (Table 2) [4]: Synergy (Drug synergy was statistically defined by CI values less than 1)

Cc1sc2c(c1C)C(c1ccc(Cl)cc1)=N[C@@H](CC(=O)OC(C)(C)C)c1nnc(C)n1-2 [JQ1]
Combination effect with Compound A2 (Table 4) [3]: Additive (additive effect by CI equal to 1)
Combination effect with Compound A2 (Table 2) [3]: Additive (additive effect by CI equal to 1)
Combination effect with Compound A2 (Table 4) ([4]; 7 Day Cotreatment Model): Additive (additive effect by CI equal to 1)
Combination effect with Compound A2 (Table 2) [4]: Additive (additive effect by CI equal to 1)
